Source: patent publication US5095018A, “3-benzyl-1,2,4-triazolo[4,3-α] pyrazines” (Burroughs Wellcome Co., priority 1989, dated 1992)
Where two headings read alike, the source gives them in different places.

Assay: standard maximal electroshock test (MES), anticonvulsant activity
Format: in vivo
Details: HCl salt
Experimental: The anticonvulsant activity of certain compounds of the present invention were determined by a standard maximal electroshock test (MES); that described by L. A. Woodbury and V. D. Davenport, Arch. Int. Pharmacodyn, 1952, 92 95.

[1] = ip, intraperitoneal (I.P.), read-out: ED50 I.P.
[2] = oral (P.O.), read-out: ED50 P.O.

Compound | ED50 [1] [mg/kg] | ED50 [2] [mg/kg]
CNc1nccn2c(Cc3ccccc3F)nnc12 [Example 1, 3-(2-fluorobenzyl)-8-(methylamino)-1,2,4-triazolo[4,3-a]pyrazine] | 4.1 | 8.3
Nc1nccn2c(Cc3ccccc3F)nnc12 [Example 2, 8-amino-3-(2-fluorobenzyl)-1,2,4-triazolo[4,3-a]pyrazine] | 9.4 | 8
CNc1nccn2c(Cc3ccccc3)nnc12 [Example 3, 3-Benzyl-8-(methylamino)-1,2,4-triazolo[4,3-a]pyrazine] | 6.2 | 15.6
CNc1nccn2c(Cc3cccc(F)c3)nnc12 [Example 4, 3-(3-fluorobenzyl)-8-(methylamino)-1,2,4-triazolo[4,3-a]pyrazine] | 4.1 | 20.4
CNc1nccn2c(Cc3ccc(F)cc3)nnc12 [Example 5, 3-(4-fluorobenzyl)-8-(methylamino)-1,2,4-triazolo[4,3-a]pyrazine] | 25 | 
CNc1nccn2c(Cc3cc(F)ccc3F)nnc12 [Example 6, 3-(2,5-difluorobenzyl)-8-(methylamino)-1,2,4-triazolo[4,3-a]pyrazine] | 4 | 10.2
Nc1nccn2c(Cc3cc(F)ccc3F)nnc12 [Example 7, 8-amino-3-(2,5-difluorobenzyl)-1,2,4-triazolo[4,3-a]pyrazine] | 7.1 | 20.4
CNc1nccn2c(Cc3c(F)cccc3F)nnc12 [Example 8, 3-(2,6-difluorobenzyl)-8-(methylamino)-1,2,4-triazolo[4,3-a]pyrazine] | 2 | 3
Nc1nccn2c(Cc3c(F)cccc3F)nnc12 [Example 9, 8-amino-3-(2,6-difluorobenzyl)-1,2,4-triazolo[4,3-a]pyrazine] | 3.1 | 7.1
Fc1cccc(F)c1Cc1nnc2c(NC3CC3)nccn12 [Example 10, 8-(cyclopropylamino)-3-(2,6-difluorobenzyl)-1,2,4-triazolo[4,3-a]pyrazine] | 7.2 | 
Fc1ccccc1Cc1nnc2c(NC3CC3)nccn12 [Example 11, 8-(cyclopropylamino)-3-(2-fluorobenzyl)-1,2,4-triazolo[4,3-a]pyrazine] | 9.4 | 
